Patent US11229664B2, “Treatment of myelosuppression” (priority 2012, dated 2022)
Several values for one entry are separate records, joined by “and”; a condition that tells them apart may be missing. Equal entries are not always repeated.

Legend:
[1] = tested on: BxPC-3 pancreas tumor cell line; experiment: BxPC-3 human pancreas tumor xenograft model: tumor weight, tumor growth inhibition (TGI); assay type: in vivo, female athymic nude mice; settings: for Tumor weight, Mean / Tumor weight, Median / Tumor weight, individual mice: Group 2: ODSH 24 mg/kg BID, IV Days 1-11, SC Days 12-end
Experimental: Compounds tested in the experiment were as follows. ODSH was made by Pyramid Laboratories, Inc. (Costa Mesa, Calif.). ODSH was provided at a stock concentration of 50 mg/ml and stored at room temperature until use. ODSH was diluted in a 0.9% NaCl solution (B. Braun Medical Inc., Irvine, Calif.) to a concentration of 2.4 mg/ml to deliver 24 mg/kg, in a 10 ml/kg dose volume when administered intravenously. A concentration of 4.8 mg/ml was formulated to deliver a 24 mg/kg dose at a 5 ml/kg dose volume when administered subcutaneously. ODSH was formulated fresh prior to each dose.
Nab-paclitaxel was manufactured by Abraxis BioScience LLC (Bridgewater, N.J.) and diluted in a 0.9% NaCl solution to a concentration of 1.5 mg/ml to deliver 15 mg/kg, in a 10 ml/kg dose volume. All standard agent preparations were made fresh prior to their administration.
BxPC-3 cells were obtained and prepared as follows. The BxPC-3 pancreas tumor cell line was received from American Type Culture Collection (ATCC, Manassas, Va.). Cultures were maintained in RPMI 1640 medium (Hyclone, Logan, Utah) supplemented with 5% fetal bovine serum. The cells were housed in a 5% CO2 atmosphere. The cultures were expanded in tissue culture flasks at a 1:3 split ratio until a sufficient amount of cells were harvested.
BxPC-3 Human Pancreas Tumor Xenograft Model: Female athymic nude mice per treatment condition were inoculated subcutaneously in the right flank with 0.1 ml of a 50% RPMI 1640/50% Matrigel™ (BD Biosciences, Bedford, Mass.) mixture containing a suspension of BxPC-3 tumor cells (approximately 5×10^6 cells/mouse).
Study Director V.1.7.54k (Study Log).
Mean tumor growth inhibition (TGI) was calculated utilizing Formula A below (deaths were not included in the TGI calculations).
All statistical analyses in the xenograft study were performed with GraphPad Prism® v4 software.

platelets = experiment: Clinical trials of ODSH adjunctive to induction and consolidation therapy in AML (platelet counts, need for transfusion); assay type: in vivo, human
Experimental: A clinical trial is conducted to confirm the therapeutic advantage of ODSH administered adjunctively to induction and consolidation therapy and subsequent allogeneic or autologous bone marrow transplantation in the treatment of acute myelogenous leukemia (AML). Subjects included in the trial are subjects diagnosed with AML who are undergoing induction and consolidation therapy. Subjects are randomly assigned to either a control group (receiving only induction and consolidation therapy) or a treatment group (receiving adjunctive administration of ODSH). ODSH is administered as a continuous infusion (0.375 mg/kg/hr). Subjects in each arm of the trial are evaluated for platelet counts and the need for platelet transfusion. Further metrics evaluated include measurement of circulating levels of PF4 and rate of granulocyte recovery.
A second clinical trial is conducted to confirm the advantage of ODSH administered adjunctively to induction and consolidation chemotherapy in the treatment of AML. The trial is an open-label pilot study often patients newly diagnosed with AML and not previously treated for AML. Patient treatment regimens are as follows. […] Subjects are evaluated for the degree and duration of thrombocytopenia, based on platelet counts and need for transfusion.

[2] = ANOVA with Tukey's Multiple Comparison Test, BxPC-3 xenograft

substantially 2-O, 3-O desulfated heparin [ODSH]
Difference in tumor weight compared to vehicle control, Day 26 [1, 2]: No significant difference
Difference in tumor weight compared to vehicle control, Day 36 [1, 2]: significant difference
Tumor weight, Mean ([1]; Day 1): 122.4 mg
Tumor weight, Median ([1]; Day 1): 22.9 mg
Tumor weight, individual mice ([1]; Day 1): 114 mg and 116 mg and 172 mg and 94 mg and 131 mg and 106 mg and 125 mg and 143 mg and 129 mg and 140 mg
Tumor weight, Mean ([1]; Day 4): 134.0 mg
Tumor weight, Median ([1]; Day 4): 28.6 mg
Tumor weight, individual mice ([1]; Day 4): 98 mg and 110 mg and 141 mg and 97 mg and 181 mg and 135 mg and 130 mg and 144 mg and 133 mg
Tumor weight, Mean ([1]; Day 8): 146.0 mg
Tumor weight, Median ([1]; Day 8): 40.4 mg
Tumor weight, individual mice ([1]; Day 8): 118 mg and 144 mg and 183 mg and 125 mg and 222 mg and 126 mg and 155 mg and 157 mg and 148 mg
Tumor weight, Mean ([1]; Day 11): 187.6 mg
Tumor weight, Median ([1]; Day 11): 162.1 mg
Tumor weight, individual mice ([1]; Day 11): 288 mg and 142 mg and 175 mg and 243 mg and 146 mg and 252 mg and 137 mg and 140 mg and 203 mg
Tumor weight, Mean ([1]; Day 15): 263.0 mg
Tumor weight, Median ([1]; Day 15): 250.0 mg
Tumor weight, individual mice ([1]; Day 15): 340 mg and 224 mg and 263 mg and 348 mg and 237 mg and 321 mg and 208 mg and 218 mg and 264 mg
Tumor weight, Mean ([1]; Day 18): 338.5 mg
Tumor weight, Median ([1]; Day 18): 304.7 mg
Tumor weight, individual mice ([1]; Day 18): 489 mg and 291 mg and 288 mg and 419 mg and 256 mg and 415 mg and 318 mg and 278 mg and 352 mg
Tumor weight, Mean ([1]; Day 22): 453.8 mg
Tumor weight, Median ([1]; Day 22): 425.4 mg
Tumor weight, individual mice ([1]; Day 22): 622 mg and 360 mg and 400 mg and 556 mg and 402 mg and 551 mg and 449 mg and 326 mg and 515 mg
Tumor weight, Mean ([1]; Day 26): 616.2 mg
Tumor weight, Median ([1]; Day 26): 551.3 mg
Tumor weight, individual mice ([1]; Day 26): 894 mg and 478 mg and 529 mg and 770 mg and 573 mg and 724 mg and 524 mg and 394 mg and 766 mg
TGI (mean tumor growth inhibition), Day 26 ([1]; Day 26 vs Day 1, compared to vehicle control, BxPC-3 xenograft, ODSH 24 mg/kg BID, oxaliplatin 10 mg/kg, gemcitabine 80 mg/kg (Table 1)): 11.5%
Tumor weight, Mean ([1]; Day 30): 882.3 mg
Tumor weight, Median ([1]; Day 30): 856.4 mg
Tumor weight, individual mice ([1]; Day 30): 1,083 mg and 756 mg and 893 mg and 1,201 mg and 820 mg and 945 mg and 764 mg and 555 mg and 1,109 mg
Tumor weight, Mean ([1]; Day 33): 1,038.6 mg
Tumor weight, Median ([1]; Day 33): 979.8 mg
Tumor weight, individual mice ([1]; Day 33): 1,218 mg and 999 mg and 961 mg (2×) and 1,309 mg and 1,087 mg and 871 mg and 733 mg and 1,340 mg
Tumor weight, Median ([1]; Day 36): 1,151.5 mg
Tumor weight, individual mice ([1]; Day 36): 1,450 mg and 1,153 mg and 1,150 mg (2×) and 1,654 mg and 1,376 mg and 1,037 mg and 836 mg and 1,823 mg
TGI (mean tumor growth inhibition), Day 36 ([1]; Day 36 vs Day 1, compared to vehicle control, BxPC-3 xenograft, ODSH 24 mg/kg BID, oxaliplatin 10 mg/kg, gemcitabine 80 mg/kg, nab-paclitaxel 15 mg/kg (Table 1)): 18.2%
Day 26 Tumor Weight ([1]; Table 14, treatment administered until Day 26): 616.2 ± 50.9 mg
Day 26 Tumor Weight ([1]; Table 15, treatment administered until Day 35): 1270.1 ± 95.5 mg
Thrombocytopenia in AML patients on induction and consolidation chemotherapy (second trial) (platelets; ODSH 4 mg/kg bolus then 0.25 mg/kg/hr, cytarabine + idarubicin): attenuates thrombocytopenia
Thrombocytopenia in AML patients on induction and consolidation therapy (first trial) (platelets; ODSH continuous infusion 0.375 mg/kg/hr, adjunctive): attenuates thrombocytopenia
